Results: the supplement of paper PMC4862054
Each block holds one compound with its values, some of them ahead of it.

What was measured:
MDA-MB-468 [1] = conditions: 72 h
Procedure, shortened: (§1)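 Breast cancer cell lines in 20 µl suspension were added to 384-well plates already holding compound at 5 concentrations, spaced in 10-fold steps across a compound-specific 10,000-fold range, and incubated for 72 h. CellTox Green fluorescence (485/520 nm) was read first to measure cell death, followed by CellTiter-Glo luminescence for viability after 10 min at room temperature. Each plate was normalised to 0.1 % DMSO and a positive kill control. EC50 values came from dose-response curve fits and were censored at the top concentration.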

CAL-120 = conditions: 72 h
Procedure, shortened: as §1

BT-549 [2] = conditions: 72 h
Procedure, shortened: as §1

MDA-MB-468 [3] = conditions: 72 h; remark: listed apart in the source
Protocol: (§2)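 Drug sensitivity and resistance testing (DSRT) of breast cancer cell lines in 384-well plates, 5 concentrations in 10-fold dilutions over a compound-specific 10,000-fold range. After 72 h, cytotoxicity was read by CellTox Green fluorescence and viability by CellTiter-Glo luminescence (multiplexed), normalised to DMSO and benzethonium chloride controls. EC50 is the inflection point of the fitted dose-response curve (bottom asymptote free, so it can be relative for partial curves) and is censored at the highest tested concentration. Rows with DSS 0 (no meaningful response) were excluded.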

MDA-MB-231 [4] = conditions: 72 h
Protocol: as §2

DU-4475 [5] = conditions: 72 h
Procedure, shortened: (§3)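 After 72 h on 384-well plates pre-loaded with compound in 5 µl medium, breast cancer cell lines seeded in 20 µl were assayed for viability with 2.5 µl CellTiter-Blue at 37 °C for 2 h, read at 560/590 nm. Each plate was quality-checked by Z'-factor and normalised to vehicle and a positive kill control. EC50 comes from the fitted percent-inhibition dose-response curve, censored at the top concentration, and rows scoring zero for drug sensitivity were left out.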

MDA-MB-468 [6] = test: drug sensitivity score (DSS), CellTiter-Blue viability (DSS (AUC-based score)); higher = stronger viability inhibition; extreme values may be limits of the assay; conditions: incubation time: 72 h
Protocol: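 DSRT with the CellTiter-Blue (resazurin reduction) viability readout, fluorescence 560/590 nm, 72 h incubation. Plates were normalised to DMSO and benzethonium chloride controls. DSS is computed from the area under the fitted dose-response curve (5 or 9 concentrations).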

HCC1143 [7] = conditions: 72 h
Procedure, shortened: as §3

MDA-MB-231 [8] = conditions: 72 h; remark: listed apart in the source
Procedure, shortened: as §3

HDQ-P1 [9] = conditions: 72 h
Procedure, shortened: as §1

HCC1143 [10] = conditions: 72 h; remark: listed apart in the source
Procedure, shortened: as §1

DU-4475 [11] = conditions: 72 h; remark: listed apart in the source
Procedure, shortened: as §1

SK-BR-3 = conditions: 72 h
Procedure, shortened: as §1

CAL-148 [12] = conditions: 72 h
Procedure, shortened: as §1

MDA-MB-436 = conditions: 72 h
Procedure, shortened: as §1

Hs578T [13] = conditions: 72 h
Procedure, shortened: as §1

CAL-51 [14] = conditions: 72 h
Procedure, shortened: as §1

BT-474 [15] = conditions: 72 h
Procedure, shortened: as §1

CAL-148 [16] = conditions: 72 h; remark: listed apart in the source
Protocol: as §2

CAL-51 [17] = conditions: 72 h; remark: listed apart in the source
Protocol: as §2

MDA-MB-453 [18] = conditions: 72 h
Procedure, shortened: as §3

CAL-85-1 [19] = conditions: 72 h
Procedure, shortened: as §3

MDA-MB-468 [20] = conditions: 72 h; remark: listed apart in the source
Procedure, shortened: as §3

HCC1599 [21] = conditions: 72 h
Procedure, shortened: as §3

Hs578T [22] = conditions: 72 h; remark: listed apart in the source
Procedure, shortened: as §3

MDA-MB-453 [23] = conditions: 72 h; remark: listed apart in the source
Procedure, shortened: as §1

MFM-223 [24] = conditions: 72 h
Procedure, shortened: as §1

MDA-MB-231 [25] = conditions: 72 h; remark: listed apart in the source
Procedure, shortened: as §1

HCC1599 [26] = conditions: 72 h; remark: listed apart in the source
Procedure, shortened: as §1

HCC1937 = conditions: 72 h
Procedure, shortened: as §1

MCF-10A [27] = conditions: 72 h
Procedure, shortened: as §1

CAL-85-1 [28] = conditions: 72 h; remark: listed apart in the source
Procedure, shortened: as §1

HCC1143 [29] = conditions: 72 h; remark: listed apart in the source
Protocol: as §2

MFM-223 [30] = conditions: 72 h; remark: listed apart in the source
Protocol: as §2

Hs578T [31] = conditions: 72 h; remark: listed apart in the source
Protocol: as §2

MCF-10A [32] = conditions: 72 h; remark: listed apart in the source
Protocol: as §2

CAL-85-1 [33] = conditions: 72 h; remark: listed apart in the source
Protocol: as §2

BT-549 [34] = conditions: 72 h; remark: listed apart in the source
Protocol: as §2

BT-474 [35] = conditions: 72 h; remark: listed apart in the source
Protocol: as §2

HDQ-P1 [36] = conditions: 72 h; remark: listed apart in the source
Procedure, shortened: as §3

MFM-223 [37] = conditions: 72 h; remark: listed apart in the source
Procedure, shortened: as §3

BT-474 [38] = conditions: 72 h; remark: listed apart in the source
Procedure, shortened: as §3

EC50, CellTiter-Glo (MDA-MB-468 [1]): > 1 µM
EC50, CellTiter-Glo (BT-549 [2]): 0.125 µM
EC50, CellTiter-Blue viability (HCC1143 [7]): > 1 µM
EC50, CellTiter-Blue viability (MDA-MB-231 [8]): 0.00912 µM
Structure (SMILES): Nc1nc(Cl)nc2c1ncn2[C@H]1C[C@H](O)[C@@H](CO)O1 [Cladribine]
EC50, CellTiter-Glo (CAL-120): 0.445 µM
EC50, CellTox Green (MDA-MB-468 [3]): 0.0025 µM
EC50, CellTox Green (MDA-MB-231 [4]): > 1 µM
EC50, CellTiter-Blue viability (DU-4475 [5]): 0.879 µM
drug sensitivity score (MDA-MB-468 [6]): 0

EC50, CellTiter-Glo (MDA-MB-468 [1]): 0.618 µM
EC50, CellTiter-Glo (HCC1143 [10]): 1.27 µM
EC50, CellTiter-Glo (SK-BR-3): 0.156 µM
EC50, CellTiter-Glo (MDA-MB-436): 0.364 µM
EC50, CellTiter-Glo (BT-549 [2]): 0.305 µM
EC50, CellTiter-Glo (BT-474 [15]): > 10 µM
EC50, CellTiter-Blue viability (MDA-MB-453 [18]): 0.396 µM
EC50, CellTiter-Blue viability (MDA-MB-468 [20]): 0.483 µM
EC50, CellTiter-Blue viability (HCC1143 [7]): 0.213 µM
EC50, CellTiter-Blue viability (MDA-MB-231 [8]): 0.183 µM
EC50, CellTiter-Blue viability (HCC1599 [21]): 0.556 µM
Structure (SMILES): Nc1ccn([C@@H]2O[C@H](CO)[C@@H](O)[C@@H]2O)c(=O)n1 [Cytarabine]
EC50, CellTiter-Glo (HDQ-P1 [9]): 2.89 µM
EC50, CellTiter-Glo (DU-4475 [11]): 0.339 µM
EC50, CellTiter-Glo (CAL-148 [12]): 0.2 µM
EC50, CellTiter-Glo (Hs578T [13]): 0.462 µM
EC50, CellTiter-Glo (CAL-51 [14]): 0.544 µM
EC50, CellTiter-Glo (CAL-120): > 10 µM
EC50, CellTox Green (CAL-148 [16]): 0.0616 µM
EC50, CellTox Green (CAL-51 [17]): 0.315 µM
EC50, CellTiter-Blue viability (DU-4475 [5]): 0.45 µM
EC50, CellTiter-Blue viability (CAL-85-1 [19]): 1.19 µM
drug sensitivity score (MDA-MB-468 [6]): 6.23
EC50, CellTiter-Blue viability (Hs578T [22]): 0.0173 µM

EC50, CellTiter-Glo (MDA-MB-468 [1]): 0.00154 µM
EC50, CellTiter-Glo (MDA-MB-453 [23]): 0.0184 µM
EC50, CellTiter-Glo (HCC1143 [10]): 0.00869 µM
EC50, CellTiter-Glo (SK-BR-3): 0.0141 µM
EC50, CellTiter-Glo (MDA-MB-436): 0.00789 µM
EC50, CellTiter-Glo (MDA-MB-231 [25]): 0.0127 µM
EC50, CellTiter-Glo (HCC1599 [26]): 0.0359 µM
EC50, CellTiter-Glo (HCC1937): 0.00461 µM
EC50, CellTiter-Glo (BT-549 [2]): 0.00194 µM
EC50, CellTiter-Glo (BT-474 [15]): 0.012 µM
EC50, CellTiter-Blue viability (MDA-MB-453 [18]): 0.0019 µM
EC50, CellTiter-Blue viability (MDA-MB-468 [20]): 0.00154 µM
EC50, CellTiter-Blue viability (HCC1143 [7]): 0.00152 µM
EC50, CellTiter-Blue viability (MDA-MB-231 [8]): 0.00135 µM
EC50, CellTiter-Blue viability (HCC1599 [21]): 0.00818 µM
EC50, CellTiter-Blue viability (BT-474 [38]): 0.0161 µM
Structure (SMILES): Cc1c2oc3c(C)ccc(C(=O)N[C@@H]4C(=O)N[C@H](C(C)C)C(=O)N5CCC[C@H]5C(=O)N(C)CC(=O)N(C)[C@@H](C(C)C)C(=O)O[C@@H]4C)c3nc-2c(C(=O)N[C@@H]2C(=O)N[C@H](C(C)C)C(=O)N3CCC[C@H]3C(=O)N(C)CC(=O)N(C)[C@@H](C(C)C)C(=O)O[C@@H]2C)c(N)c1=O [Dactinomycin]
EC50, CellTiter-Glo (HDQ-P1 [9]): 0.00214 µM
EC50, CellTiter-Glo (DU-4475 [11]): 0.00298 µM
EC50, CellTiter-Glo (CAL-148 [12]): 0.00156 µM
EC50, CellTiter-Glo (MFM-223 [24]): 0.0359 µM
EC50, CellTiter-Glo (Hs578T [13]): 0.0111 µM
EC50, CellTiter-Glo (CAL-51 [14]): 0.00511 µM
EC50, CellTiter-Glo (CAL-120): 0.0102 µM
EC50, CellTiter-Glo (MCF-10A [27]): 0.00854 µM
EC50, CellTiter-Glo (CAL-85-1 [28]): 0.00971 µM
EC50, CellTox Green (MDA-MB-468 [3]): 0.0436 µM
EC50, CellTox Green (HCC1143 [29]): 0.167 µM
EC50, CellTox Green (CAL-148 [16]): 0.00144 µM
EC50, CellTox Green (MFM-223 [30]): 0.0939 µM
EC50, CellTox Green (MDA-MB-231 [4]): 0.00254 µM
EC50, CellTox Green (Hs578T [31]): 0.0305 µM
EC50, CellTox Green (CAL-51 [17]): 0.0021 µM
EC50, CellTox Green (MCF-10A [32]): 0.027 µM
EC50, CellTox Green (CAL-85-1 [33]): 0.0222 µM
EC50, CellTox Green (BT-549 [34]): 0.00504 µM
EC50, CellTox Green (BT-474 [35]): 0.354 µM
EC50, CellTiter-Blue viability (HDQ-P1 [36]): 0.00167 µM
EC50, CellTiter-Blue viability (DU-4475 [5]): 0.00072 µM
EC50, CellTiter-Blue viability (CAL-85-1 [19]): 0.00203 µM
drug sensitivity score (MDA-MB-468 [6]): 31.4
EC50, CellTiter-Blue viability (MFM-223 [37]): 0.0148 µM
EC50, CellTiter-Blue viability (Hs578T [22]): 0.00099 µM
